The text below walks through data of ChEMBL document CHEMBL5257019, “An Overview of Severe Acute Respiratory Syndrome-Coronavirus (SARS-CoV) 3CL Protease Inhibitors: Peptidomimetics and Small Molecule Chemotherapy” (J Med Chem, 2016).

The nature of the assay: Inhibition of SARS-CoV-2 3CL protease Q189A mutant by FRET assay. On the set-up: species or system Severe acute respiratory syndrome coronavirus 2.

In the case of `O=c1c(O[C@@H]2OC(O)[C@@H](O)[C@H](O)[C@@H]2O)c(-c2ccc(O)c(O)c2)oc2cc(O)cc(O)c12` (stereo partly specified), it took 24.1 µM to reach half-maximal inhibition (IC50).

A word on the IC50: it is the concentration needed to halve the response being measured. A low value points to inhibition by little substance.
